Source: ChEMBL document CHEMBL1123148, “Improved synthesis of 2'-deoxyformycin A and studies of its in vitro activity against mouse lymphoma of T-cell origin” (J Med Chem, 1985)

Columns and labels:
[1] = Compound evaluated for the inhibitory concentration of S49 Mouse Lymphoma T-cells; type: functional, cell-based
[2] = Compound along with 10 uM of erythro-9-(2-hydroxy-3-nonyl)adenine (EHNA) was tested against mouse lymphoma T-cells; type: functional

| IC50 [1] [µM] | IC50 [2] [µM] | SMILES |
| --- | --- | --- |
| 13.5 | 9.3 | Nc1ncnc2c([C@H]3C[C@H](O)[C@@H](CO)O3)n[nH]c12 |
| 180 | 4.5 | Nc1ncnc2c1ncn2[C@H]1C[C@H](O)[C@@H](CO)O1 [DEOXYADENOSINE] |
| 2.3 | 0.03 | Nc1ncnc2c([C@@H]3O[C@H](CO)[C@@H](O)[C@H]3O)[nH]nc12 [FORMYCIN] |
